These results are taken from US5391486A, “Physiologically active substance BE-16627” (Banyu Pharmaceutical Co., Ltd., priority 1989, dated 1995).

One data set deals with T1, Stromelysin (Homo sapiens, UniProt P08254).
T1 construct: prostromelysin prepared by genetic engineering (Celltech., GB) was used by treating it with trypsin; purchased Celltech., GB
Put plainly: Stromelysin inhibition in vitro (substrate A: 3H casein). In kind it is biochemical, Human (Recombinant). To be noted: for inhibition of stromelysin (human) relative to other enzymes: in words, from Table 1, next collagenase and thermolysin; for IC50: stromelysin, human recombinant, substrate A (3H casein). As for the experimental part:
As stromelysin (human), prostromelysin prepared by genetic engineering (Celltech., GB) was used by treating it with trypsin (10 μg/ml) at 37° C. for 10 minutes and inhibiting a residual trypsin activity with soybean trypsin inhibitor (50 μg/ml).
(§1) Substrate A: ^3 Hcasein

The next data set addresses Collagenase. Put plainly: Collagenase inhibition in vitro (substrate A: 3H casein). The data set is classed as biochemical. The conditions noted are these: Chlostridium histriticum. Here is the method:
(§2) An inhibitory activity of BE-16627A and B to various proteases including stromelysin and collagenase was determined by an in-vitro test. As stromelysin (human), prostromelysin prepared by genetic engineering (Celltech., GB) was used by treating it with trypsin (10 μg/ml) at 37° C. for 10 minutes and inhibiting a residual trypsin activity with soybean trypsin inhibitor (50 μg/ml).
as §1

For a further data set, the target named is Thermolysin (Bacillus thermoproteolyticus, UniProt P00800). Put plainly: Thermolysin inhibition in vitro (substrate A: 3H casein). In kind it is biochemical, Bacillus thermo-proteolyticus. Here is the method: as §2, §1
Another data set addresses T2, Trypsin (Bos taurus, UniProt P00760).
T2 sequence (P00760 24-246): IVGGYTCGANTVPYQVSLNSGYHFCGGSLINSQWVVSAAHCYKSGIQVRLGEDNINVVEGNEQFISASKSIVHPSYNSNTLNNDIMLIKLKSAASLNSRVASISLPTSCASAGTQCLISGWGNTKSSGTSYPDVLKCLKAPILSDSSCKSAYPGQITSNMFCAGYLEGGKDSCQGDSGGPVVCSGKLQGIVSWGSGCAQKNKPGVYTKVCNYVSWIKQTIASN
Put plainly: Trypsin inhibition in vitro (substrate A: 3H casein). The data set is classed as biochemical. The conditions noted are these: bovine. As for the experimental part:
as §2, §1

Another data set addresses Chymotrypsin (Bos taurus, UniProt P00766). Put plainly: Chymotrypsin inhibition in vitro (substrate A: 3H casein). To be noted: bovine. The data set is classed as biochemical. As for the experimental part:
as §2, §1

In another data set the target is Elastase (Sus scrofa, UniProt P00772). The data set is described as follows: Elastase inhibition in vitro (substrate B: Succinylalanyl-prolyl-alanyl-methylcumarylamide). In kind it is biochemical. The conditions noted are these: porcine. Here is the method:
as §2
Substrate B: Succinylalanyl-prolyl-alanyl-methylcumarylamide

The target in the next data set is T3, Papain (Carica papaya, UniProt P00784).
T3 construct: from tissue; host or cells: Papaya latex
T3 sequence (P00784 134-345): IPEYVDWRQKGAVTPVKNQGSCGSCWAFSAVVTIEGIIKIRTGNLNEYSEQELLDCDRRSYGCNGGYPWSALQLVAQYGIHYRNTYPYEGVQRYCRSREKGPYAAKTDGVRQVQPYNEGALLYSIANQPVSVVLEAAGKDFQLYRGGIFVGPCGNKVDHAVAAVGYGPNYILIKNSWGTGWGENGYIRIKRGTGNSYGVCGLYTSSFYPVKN
Put plainly: Papain inhibition in vitro (substrate A: 3H casein). The data set is classed as biochemical. To be noted: papaya latex. Here is the method:
as §2, §1

The target of a further data set is Pepsin (Sus scrofa, UniProt P00791). The data set is described as follows: Pepsin inhibition in vitro (substrate A: 3H casein). The data set is classed as biochemical. The conditions noted are these: porcine. Here is the method: as §2, §1
For data set [1], the system named is mouse cultured cancer cells (P388). The data set is described as follows: cells. The data set is classed as cell-based.
The next data set in a line: Solubility. In kind it is physicochemical.
The subject of a further data set is metal enzymes. Put plainly: Inhibitory activity to various proteases (metal enzymes versus others). The data set is classed as biochemical. The conditions noted are these: in words, from Table 1. As for the experimental part: as §2
Setting [2] is: in an organic solvent such as chloroform, ethyl acetate, benzene, hexane and the like.

T1 sequence (P08254 100-477): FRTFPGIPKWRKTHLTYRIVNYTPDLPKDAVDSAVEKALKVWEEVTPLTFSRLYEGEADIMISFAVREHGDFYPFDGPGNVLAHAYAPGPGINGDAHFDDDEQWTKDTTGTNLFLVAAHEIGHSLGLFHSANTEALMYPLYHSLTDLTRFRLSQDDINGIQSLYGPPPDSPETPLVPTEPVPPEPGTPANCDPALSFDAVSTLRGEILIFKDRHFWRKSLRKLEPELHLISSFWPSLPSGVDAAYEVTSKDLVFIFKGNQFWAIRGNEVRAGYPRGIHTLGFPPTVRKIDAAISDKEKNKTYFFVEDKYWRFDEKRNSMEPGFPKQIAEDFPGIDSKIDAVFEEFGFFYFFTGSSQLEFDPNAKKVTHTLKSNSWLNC
Sequence of Thermolysin (P00800 233-548): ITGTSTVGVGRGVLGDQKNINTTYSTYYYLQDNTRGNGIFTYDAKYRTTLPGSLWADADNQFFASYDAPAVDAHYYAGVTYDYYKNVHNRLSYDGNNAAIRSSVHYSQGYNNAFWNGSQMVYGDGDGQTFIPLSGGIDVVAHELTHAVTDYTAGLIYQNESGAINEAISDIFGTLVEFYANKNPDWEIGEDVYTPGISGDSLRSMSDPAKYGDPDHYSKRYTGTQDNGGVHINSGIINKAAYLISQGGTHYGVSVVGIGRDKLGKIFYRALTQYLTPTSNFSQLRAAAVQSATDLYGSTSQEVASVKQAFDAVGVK
Sequence of Elastase (P00772 27-266): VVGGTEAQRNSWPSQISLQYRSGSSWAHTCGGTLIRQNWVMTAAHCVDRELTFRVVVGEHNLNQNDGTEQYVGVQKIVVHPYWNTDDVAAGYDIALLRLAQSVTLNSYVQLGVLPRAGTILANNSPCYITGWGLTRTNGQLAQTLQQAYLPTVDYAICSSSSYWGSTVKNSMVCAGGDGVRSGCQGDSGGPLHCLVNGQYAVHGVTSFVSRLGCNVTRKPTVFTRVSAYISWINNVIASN
Sequence of Pepsin (P00791 60-385): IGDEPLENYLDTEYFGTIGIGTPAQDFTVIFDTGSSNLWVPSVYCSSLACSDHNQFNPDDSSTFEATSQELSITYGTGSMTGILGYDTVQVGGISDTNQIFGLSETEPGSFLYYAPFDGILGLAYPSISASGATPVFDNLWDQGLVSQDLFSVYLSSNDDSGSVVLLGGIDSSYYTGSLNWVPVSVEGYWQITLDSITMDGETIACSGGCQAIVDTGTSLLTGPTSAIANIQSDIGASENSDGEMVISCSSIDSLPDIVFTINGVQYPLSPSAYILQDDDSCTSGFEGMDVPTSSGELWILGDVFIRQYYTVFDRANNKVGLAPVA

The IC50 is the concentration needed to halve the response being measured. Take `CC(C)CC(CC(=O)NO)C(=O)NC(CO)C(=O)NC(C(=O)O)C(C)C` (stereo not drawn) [BE-16627B]: at Stromelysin, the “inhibition of stromelysin (human) relative to other enzymes” value is given as “most strongly inhibited”. Further, the IC50 is 0.58 µM at Stromelysin; 2.7 µM against Collagenase; 2.4 µM on Thermolysin; more than 266 µM against Trypsin; more than 266 µM against Chymotrypsin; more than 266 µM at Elastase. For the same molecule, the 50% inhibitory concentration (IC50) at Papain and against Pepsin was more than 266 µM each time. Besides, the cytotoxicity entry in data set [1] is reported as “low cytotoxicity”. For the same molecule, the Solubility result in “Solubility” (in an alkaline water) was “readily soluble”; in the data set “Solubility” (setting [2]), “almost insoluble”. Further, the “inhibition of the activity of metal enzymes” value in the data set on metal enzymes is given as “specifically inhibited”.
For `CCCC(CC(=O)NO)C(=O)NC(CO)C(=O)NC(C(=O)O)C(C)C` (stereo not drawn) [BE-16627A], the “inhibition of stromelysin (human) relative to other enzymes” value on Stromelysin is on record as “most strongly inhibited”. Also, the half-maximal inhibitory concentration (IC50) is 5 µM at Stromelysin; 11.6 µM against Collagenase; 19.3 µM at Thermolysin; more than 276 µM against Trypsin; more than 276 µM on Chymotrypsin; more than 276 µM at Elastase. Moreover, the IC50 on Papain is 138 µM; against Pepsin, more than 276 µM; in [1] (Mus musculus, P388, read-out: IC50 value (cytotoxic test)), not below 100 µg/mL. Further, the cytotoxicity entry in data set [1] is listed as “low cytotoxicity”. Moreover, the Solubility entry in “Solubility” (in an alkaline water) is “readily soluble”; in “Solubility” (setting [2]), “almost insoluble”. The “inhibition of the activity of metal enzymes” value in the data set on metal enzymes was “specifically inhibited”.
